We go through three compounds from ChEMBL document CHEMBL5653615 (J Biol Chem, 2013).

Molecules are shown by their SMILES. Activity calls are given as the source filed them. No cut-off for these calls is given here.

Assay [1] addresses CDK1/Cyclin A (Homo sapiens) (UniProt P06493+P20248). As to the kind of experiment: Inhibition of human CDK1/cyclin A at 1.82 nM by HotSpot assay relative to control. In kind it is protein-complex assay.
The target of assay [2] is Cyclin-dependent kinase 7/ cyclin H (Homo sapiens) (UniProt P51946+P50613). The assay can be described thus: Inhibition of human CDK7/cyclin H at 1.82 nM by HotSpot assay relative to control. The assay is classed as protein-complex assay.
The target in assay [3] is Tyrosine-protein kinase Fes/Fps (Homo sapiens) (UniProt P07332). The assay can be described thus: Inhibition of human FES at 1.82 nM by HotSpot assay relative to control.
Sequence of Tyrosine-protein kinase Fes/Fps (Homo sapiens) (P07332 whole entry): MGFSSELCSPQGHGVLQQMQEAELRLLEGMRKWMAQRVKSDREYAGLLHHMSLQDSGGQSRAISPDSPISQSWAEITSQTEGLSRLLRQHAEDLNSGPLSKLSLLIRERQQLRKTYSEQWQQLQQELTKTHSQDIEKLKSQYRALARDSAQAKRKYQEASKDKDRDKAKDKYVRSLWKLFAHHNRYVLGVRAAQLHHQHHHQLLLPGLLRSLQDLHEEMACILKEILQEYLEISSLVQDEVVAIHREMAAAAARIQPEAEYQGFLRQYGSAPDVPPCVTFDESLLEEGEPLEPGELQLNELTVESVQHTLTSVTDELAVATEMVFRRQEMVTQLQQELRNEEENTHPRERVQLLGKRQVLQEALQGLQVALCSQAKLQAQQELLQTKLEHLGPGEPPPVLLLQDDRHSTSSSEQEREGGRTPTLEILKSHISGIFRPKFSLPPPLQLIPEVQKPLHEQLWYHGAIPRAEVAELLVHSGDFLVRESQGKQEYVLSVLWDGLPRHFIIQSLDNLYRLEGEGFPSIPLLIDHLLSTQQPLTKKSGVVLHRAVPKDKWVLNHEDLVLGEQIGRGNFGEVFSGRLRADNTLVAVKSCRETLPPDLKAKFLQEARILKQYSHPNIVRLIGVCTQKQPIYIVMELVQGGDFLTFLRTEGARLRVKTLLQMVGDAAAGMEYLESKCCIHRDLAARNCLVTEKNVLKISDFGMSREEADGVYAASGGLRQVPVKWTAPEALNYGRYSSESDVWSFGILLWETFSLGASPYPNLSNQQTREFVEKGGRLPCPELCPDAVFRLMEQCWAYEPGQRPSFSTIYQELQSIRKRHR
In assay [4] the target is T1, G protein-coupled receptor kinase 3 (Homo sapiens) (UniProt P35626).
T1 sequence (whole entry): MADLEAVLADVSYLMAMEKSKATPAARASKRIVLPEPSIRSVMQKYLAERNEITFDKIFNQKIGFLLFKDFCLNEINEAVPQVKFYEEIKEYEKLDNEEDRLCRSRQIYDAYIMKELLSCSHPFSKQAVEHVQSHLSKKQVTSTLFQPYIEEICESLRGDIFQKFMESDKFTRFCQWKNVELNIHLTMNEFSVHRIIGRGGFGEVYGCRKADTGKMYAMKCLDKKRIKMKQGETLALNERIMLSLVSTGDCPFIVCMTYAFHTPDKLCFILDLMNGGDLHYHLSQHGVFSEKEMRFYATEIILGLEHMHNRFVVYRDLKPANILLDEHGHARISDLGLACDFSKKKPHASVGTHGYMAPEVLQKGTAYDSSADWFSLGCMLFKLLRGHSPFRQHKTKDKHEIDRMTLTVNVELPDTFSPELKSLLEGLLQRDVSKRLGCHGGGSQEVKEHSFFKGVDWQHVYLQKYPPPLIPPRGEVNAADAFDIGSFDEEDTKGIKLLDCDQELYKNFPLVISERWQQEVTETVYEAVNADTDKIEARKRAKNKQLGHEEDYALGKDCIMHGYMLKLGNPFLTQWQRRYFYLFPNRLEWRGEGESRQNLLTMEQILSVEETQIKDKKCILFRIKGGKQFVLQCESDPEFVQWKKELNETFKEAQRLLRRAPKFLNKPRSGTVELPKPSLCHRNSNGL
As to the kind of experiment: Inhibition of human GRK3 at 1.82 nM by HotSpot assay relative to control.

The target in assay [5] is Serine/threonine-protein kinase pim-1 (Homo sapiens) (UniProt P11309). The assay can be described thus: Inhibition of human PIM1 at 1.82 nM by HotSpot assay relative to control.
Sequence of Serine/threonine-protein kinase pim-1 (Homo sapiens) (P11309 whole entry, looked up): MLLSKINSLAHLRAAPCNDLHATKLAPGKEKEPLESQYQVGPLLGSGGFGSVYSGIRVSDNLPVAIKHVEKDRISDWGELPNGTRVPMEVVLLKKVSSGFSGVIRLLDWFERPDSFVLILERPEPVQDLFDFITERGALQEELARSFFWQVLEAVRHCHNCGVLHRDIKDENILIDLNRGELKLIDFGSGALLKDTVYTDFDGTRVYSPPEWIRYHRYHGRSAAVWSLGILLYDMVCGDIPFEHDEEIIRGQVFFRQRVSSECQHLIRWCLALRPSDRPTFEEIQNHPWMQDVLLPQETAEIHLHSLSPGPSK
For assay [6], the target named is Receptor-interacting serine/threonine-protein kinase 2 (Homo sapiens) (UniProt O43353). As to the kind of experiment: Inhibition of human RIPK2 at 1.82 nM by HotSpot assay relative to control.
The species entered for another assay is Homo sapiens. The assay can be described thus: Inhibition of human TAO1 at 1.82 nM by HotSpot assay relative to control.
For another assay, the system named is CHO-K1. The assay can be described thus: Inhibition of Insulin receptor M1153L mutant (unknown origin) transfected in CHO-K1 cell lysate at 10 uM for 30 mins on ice followed by insulin stimulation for 10 mins by Western blot analysis. The assay is classed as subcellular. Particulars: Homo sapiens, time 40.0 min.
For assay [7], the target named is Receptor tyrosine-protein kinase erbB-2 (Homo sapiens) (UniProt P04626). As to the kind of experiment: Inhibition of human ERBB2 at 18.6 nM by HotSpot assay relative to control.
Sequence of Receptor tyrosine-protein kinase erbB-2 (Homo sapiens) (P04626 whole entry): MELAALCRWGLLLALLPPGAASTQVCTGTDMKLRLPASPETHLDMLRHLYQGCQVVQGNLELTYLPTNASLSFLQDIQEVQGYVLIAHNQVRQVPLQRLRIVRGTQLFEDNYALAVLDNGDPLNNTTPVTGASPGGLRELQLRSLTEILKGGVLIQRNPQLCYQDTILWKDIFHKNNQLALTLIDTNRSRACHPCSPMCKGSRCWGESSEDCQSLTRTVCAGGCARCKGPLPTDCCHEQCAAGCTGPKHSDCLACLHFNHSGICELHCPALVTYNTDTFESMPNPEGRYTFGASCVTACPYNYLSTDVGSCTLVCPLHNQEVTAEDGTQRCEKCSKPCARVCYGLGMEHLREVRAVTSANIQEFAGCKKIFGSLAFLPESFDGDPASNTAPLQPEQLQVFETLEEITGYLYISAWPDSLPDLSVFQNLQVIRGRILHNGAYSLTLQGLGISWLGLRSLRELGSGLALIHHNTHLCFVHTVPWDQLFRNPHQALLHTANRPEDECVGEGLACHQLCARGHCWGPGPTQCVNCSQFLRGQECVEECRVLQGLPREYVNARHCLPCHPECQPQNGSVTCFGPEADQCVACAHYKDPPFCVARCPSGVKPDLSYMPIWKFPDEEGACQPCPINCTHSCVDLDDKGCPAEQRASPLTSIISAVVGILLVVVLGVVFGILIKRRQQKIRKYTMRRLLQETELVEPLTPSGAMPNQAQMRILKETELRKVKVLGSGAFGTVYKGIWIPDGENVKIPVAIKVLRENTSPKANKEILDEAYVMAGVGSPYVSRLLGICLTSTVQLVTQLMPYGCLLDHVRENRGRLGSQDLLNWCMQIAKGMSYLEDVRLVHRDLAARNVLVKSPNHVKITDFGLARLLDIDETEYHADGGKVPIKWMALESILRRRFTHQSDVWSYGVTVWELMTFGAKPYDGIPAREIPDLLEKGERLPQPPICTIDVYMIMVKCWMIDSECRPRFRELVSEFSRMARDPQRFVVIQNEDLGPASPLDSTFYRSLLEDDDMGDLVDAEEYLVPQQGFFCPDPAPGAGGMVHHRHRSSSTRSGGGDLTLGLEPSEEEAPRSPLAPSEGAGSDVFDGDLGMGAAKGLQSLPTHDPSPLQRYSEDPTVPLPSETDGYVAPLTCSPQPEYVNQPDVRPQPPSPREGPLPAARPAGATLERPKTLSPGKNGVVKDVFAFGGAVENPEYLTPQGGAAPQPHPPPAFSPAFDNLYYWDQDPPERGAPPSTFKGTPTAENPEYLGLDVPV
Assay [8] deals with Tyrosine-protein kinase Fes/Fps (Homo sapiens) (UniProt P07332). The assay can be described thus: Inhibition of human FES at 18.6 nM by HotSpot assay relative to control.
The target in assay [9] is Receptor-type tyrosine-protein kinase FLT3 (Homo sapiens) (UniProt P36888). As to the kind of experiment: Inhibition of human FLT3 at 18.6 nM by HotSpot assay relative to control.
Sequence of Receptor-type tyrosine-protein kinase FLT3 (Homo sapiens) (P36888 whole entry): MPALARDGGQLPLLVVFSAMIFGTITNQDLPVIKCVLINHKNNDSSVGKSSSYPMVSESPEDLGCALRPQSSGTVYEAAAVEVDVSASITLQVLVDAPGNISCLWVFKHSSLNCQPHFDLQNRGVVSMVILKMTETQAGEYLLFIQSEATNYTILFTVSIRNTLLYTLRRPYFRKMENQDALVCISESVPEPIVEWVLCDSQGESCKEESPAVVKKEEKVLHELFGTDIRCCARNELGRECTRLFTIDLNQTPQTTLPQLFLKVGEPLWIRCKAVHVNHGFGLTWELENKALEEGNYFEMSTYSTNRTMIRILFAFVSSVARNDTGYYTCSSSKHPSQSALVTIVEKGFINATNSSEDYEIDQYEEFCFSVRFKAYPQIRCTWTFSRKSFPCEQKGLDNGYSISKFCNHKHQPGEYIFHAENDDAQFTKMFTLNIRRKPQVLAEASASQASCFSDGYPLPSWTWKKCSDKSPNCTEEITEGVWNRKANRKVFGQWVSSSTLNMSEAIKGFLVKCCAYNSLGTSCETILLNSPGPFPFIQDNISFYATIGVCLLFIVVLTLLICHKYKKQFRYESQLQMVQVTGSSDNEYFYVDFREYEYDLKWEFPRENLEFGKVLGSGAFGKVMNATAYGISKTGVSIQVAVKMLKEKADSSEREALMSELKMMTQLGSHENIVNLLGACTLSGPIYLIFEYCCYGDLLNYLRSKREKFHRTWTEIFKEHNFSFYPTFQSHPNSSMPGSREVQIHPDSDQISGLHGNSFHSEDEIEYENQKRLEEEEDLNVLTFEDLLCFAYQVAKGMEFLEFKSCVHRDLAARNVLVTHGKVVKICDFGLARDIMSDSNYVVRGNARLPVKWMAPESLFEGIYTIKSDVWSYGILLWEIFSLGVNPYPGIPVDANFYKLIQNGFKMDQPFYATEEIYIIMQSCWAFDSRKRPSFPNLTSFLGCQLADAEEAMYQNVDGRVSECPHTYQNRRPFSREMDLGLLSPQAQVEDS
Assay [10] addresses T2, Mitogen-activated protein kinase kinase kinase kinase 2 (Homo sapiens) (UniProt Q12851).
T2 sequence (whole entry): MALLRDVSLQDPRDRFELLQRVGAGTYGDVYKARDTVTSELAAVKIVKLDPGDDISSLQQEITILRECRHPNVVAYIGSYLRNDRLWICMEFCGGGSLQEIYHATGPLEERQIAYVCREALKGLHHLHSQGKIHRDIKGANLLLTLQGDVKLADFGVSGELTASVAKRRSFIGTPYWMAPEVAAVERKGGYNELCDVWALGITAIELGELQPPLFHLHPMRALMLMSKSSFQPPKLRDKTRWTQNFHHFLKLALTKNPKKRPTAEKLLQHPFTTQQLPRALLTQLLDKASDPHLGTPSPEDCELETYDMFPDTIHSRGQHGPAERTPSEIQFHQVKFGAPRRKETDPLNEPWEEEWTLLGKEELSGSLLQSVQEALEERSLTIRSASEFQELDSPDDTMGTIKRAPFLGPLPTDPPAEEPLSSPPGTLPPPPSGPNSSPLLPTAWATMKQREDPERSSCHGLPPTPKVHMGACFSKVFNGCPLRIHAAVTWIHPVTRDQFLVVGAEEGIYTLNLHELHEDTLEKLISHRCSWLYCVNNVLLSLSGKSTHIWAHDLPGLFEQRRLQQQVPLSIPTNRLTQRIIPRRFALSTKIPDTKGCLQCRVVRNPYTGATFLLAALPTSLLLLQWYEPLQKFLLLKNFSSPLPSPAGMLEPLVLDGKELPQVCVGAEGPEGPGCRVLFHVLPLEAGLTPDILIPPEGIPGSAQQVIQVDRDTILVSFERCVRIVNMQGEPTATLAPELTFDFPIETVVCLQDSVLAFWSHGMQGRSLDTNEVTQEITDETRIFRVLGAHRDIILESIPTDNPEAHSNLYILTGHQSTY
As to the kind of experiment: Inhibition of human GCK at 18.6 nM by HotSpot assay relative to control.

Assay [11] addresses Dual specificity mitogen-activated protein kinase kinase 2 (Homo sapiens) (UniProt P36507). The assay can be described thus: Inhibition of human MEK2 at 18.6 nM by HotSpot assay relative to control.
Assay [12] has as its target Serine/threonine-protein kinase PAK 6 (Homo sapiens) (UniProt Q9NQU5). The assay can be described thus: Inhibition of human PAK6 at 18.6 nM by HotSpot assay relative to control.
Assay [13] concerns the target Protein-tyrosine kinase 2-beta (Homo sapiens) (UniProt Q14289). As to the kind of experiment: Inhibition of human PYK2 at 18.6 nM by HotSpot assay relative to control.
Assay [14] concerns the target SRSF protein kinase 2 (Homo sapiens) (UniProt P78362). The assay can be described thus: Inhibition of human SRPK2 at 18.6 nM by HotSpot assay relative to control.
Assay [15] addresses Insulin-like growth factor 1 receptor (Homo sapiens, UniProt P08069). The settings on record: dose 18.6 nM.
Description: Inhibition of human IGF1R at 18.6 nM by HotSpot assay relative to control

Sequence of Serine/threonine-protein kinase PAK 6 (Homo sapiens) (Q9NQU5 whole entry, looked up): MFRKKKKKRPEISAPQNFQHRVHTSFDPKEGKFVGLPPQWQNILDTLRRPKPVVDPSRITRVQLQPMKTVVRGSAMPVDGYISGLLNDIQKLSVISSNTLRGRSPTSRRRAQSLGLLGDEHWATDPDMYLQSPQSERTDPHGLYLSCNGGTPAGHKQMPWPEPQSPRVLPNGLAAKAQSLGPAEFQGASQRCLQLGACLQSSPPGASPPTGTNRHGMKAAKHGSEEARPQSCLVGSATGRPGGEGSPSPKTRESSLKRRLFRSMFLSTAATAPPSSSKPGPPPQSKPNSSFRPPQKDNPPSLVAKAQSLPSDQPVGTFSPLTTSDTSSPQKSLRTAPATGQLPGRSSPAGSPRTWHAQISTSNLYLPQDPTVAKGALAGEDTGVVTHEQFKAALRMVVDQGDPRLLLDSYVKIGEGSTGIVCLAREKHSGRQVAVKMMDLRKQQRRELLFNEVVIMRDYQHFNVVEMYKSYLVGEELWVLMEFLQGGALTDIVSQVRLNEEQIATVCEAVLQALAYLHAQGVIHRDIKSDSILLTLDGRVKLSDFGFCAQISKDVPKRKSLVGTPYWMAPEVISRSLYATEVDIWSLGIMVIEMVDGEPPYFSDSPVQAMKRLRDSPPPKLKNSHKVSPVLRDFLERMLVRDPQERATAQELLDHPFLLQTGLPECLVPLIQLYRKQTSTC
Sequence of CDK1/Cyclin A (Homo sapiens) (P06493 whole entry, looked up): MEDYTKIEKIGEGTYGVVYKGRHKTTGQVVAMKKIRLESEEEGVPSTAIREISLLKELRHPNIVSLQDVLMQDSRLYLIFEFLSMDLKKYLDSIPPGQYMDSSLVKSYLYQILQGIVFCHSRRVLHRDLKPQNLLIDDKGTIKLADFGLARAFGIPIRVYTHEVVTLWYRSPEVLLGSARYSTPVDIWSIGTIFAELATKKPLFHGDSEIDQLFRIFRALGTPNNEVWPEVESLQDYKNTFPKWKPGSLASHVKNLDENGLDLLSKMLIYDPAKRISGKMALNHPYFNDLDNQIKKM
Sequence of CDK1/Cyclin A (Homo sapiens) (P20248 whole entry, looked up): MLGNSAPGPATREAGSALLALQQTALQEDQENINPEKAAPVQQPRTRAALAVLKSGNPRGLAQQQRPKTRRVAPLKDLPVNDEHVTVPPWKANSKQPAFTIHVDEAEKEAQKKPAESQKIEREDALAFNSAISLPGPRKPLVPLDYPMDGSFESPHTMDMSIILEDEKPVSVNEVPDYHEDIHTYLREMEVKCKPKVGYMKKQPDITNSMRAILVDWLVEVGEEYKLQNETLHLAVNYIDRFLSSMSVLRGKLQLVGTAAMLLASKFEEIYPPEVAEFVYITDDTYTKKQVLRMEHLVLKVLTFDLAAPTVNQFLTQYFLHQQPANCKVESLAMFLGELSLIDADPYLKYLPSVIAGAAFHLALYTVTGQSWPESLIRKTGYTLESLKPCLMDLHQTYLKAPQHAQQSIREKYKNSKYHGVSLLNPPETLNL

With `C[C@@]1(C(=O)Nc2ccc(F)nc2)CCCN1c1nc(Nc2cc(C3CC3)n[nH]2)c2cccn2n1`, the inhibition in assay [1] is -1.79%; in [2], -3.28%; in assay [3], 5.24%; in [4] it was -5.67%; in assay [5], -5.96%; in [6], 6.56%. Also, the inhibition in the assay listed under Homo sapiens stood at 1.46%.
As for `Oc1n[nH]c2nnc(-c3c(-c4ccccc4)nn4ccccc34)cc12`, in the assay on CHO-K1, the inhibition entry is “inactive”.
Turning to `C[C@]1(O)C[C@@H](c2nc(-c3ccc4ccc(-c5ccccc5)nc4c3)c3c(N)nccn32)C1`, the inhibition is 1.71% in assay [7]; 1.59% in [8]; -4.3% in assay [9]; 1.94% in [10]; -5.1% in [11]; -8.39% in [12]. Besides, the figures for the inhibition in [13], in assay [14] and in [15] were -4.64%, -1.64% and 66.3%, respectively.
